Assay [1] concerns myocardial ischemia-reperfusion (IR) injury. The assay can be described thus: Infarct size in rat model of myocardial ischemia-reperfusion (IR) injury. The conditions noted are these: 45 min ischemia, Epi 0.5 mg/kg and/or Nico 33 f× g/kg IV, repeated low dose, infarct size 48 h after IR. The format is in vivo. The protocol:
The general methods for the implementation of the rat myocardial IR model are detailed elsewhere. The total time of myocardial ischemia was 45 min Dx-EPI (3 mg/kg) was mixed in saline solution and given IV via the jugular vein. Control animals received dextran saline solution injections. Infarct size was examined 48 h after IR using established procedures.
The general methods for the implementation of the rat myocardial IR model are described herein. The total time of myocardial ischemia was 45 min Treatment was administered a total of 1, 2 or 3 times. The initial dose was given15 min prior to reperfusion and then at 12 (in the case of 2× and 3× dosing) and again at 24 h (in the case of 3× dosing) after reperfusion. Epi (0.5 mg/kg) and/or Nico (33 f× g/kg) were mixed in water and given IV using the jugular vein. Control animals only received water injections. Infarct size was examined 48 h after IR using established procedures.

In assay [2] the test system is mitochondrial swelling (damage) induced by high calcium. The experiment in a line: Calcium-induced mitochondrial swelling, EPI and NICO co-treatment, isobolographic analysis. The conditions noted are these: rat left ventricle mitochondria; 33 μM CaCl2; 535 nm, 30 min. The format is biochemical. The procedure:
To determine the effect that (-)-epicatechin (EPI) and nicorandil (NICO) co-treatment has on mitochondrial swelling (damage) induced by high calcium, EPI or NICO, and EPI+NICO protective effects against calcium induced mitochondrial damage (swelling), were evaluated by monitoring changes in optical density (OD, light absorbance): Hearts from male rats were excised and weighed. Left ventricles were homogenized (0.1 g/mL) in solution A (Sucrose 2M, EDTA 0.01M, Hepes 0.5M: pH=7.4), centrifuged 10 min (800×g), 4° C., the supernatant was centrifuged 10 min (8000×g), 4° C. and the pellet was re-suspended in solution B (Sucrose 2M, EDTA 0.01M, Tris 0.5M-H2PO4-50 mM: pH=7.4) and centrifuged 10 min (10000×g), 4° C. Pellet was re-suspended in 10 mL of solution C (Sucrose 2M, EDTA 0.01M, Tris 0.5M-H2PO4-50 mM, Succinate 1M: pH=7.4. 33 μM of CaCl2 was then, added in order to induce mitochondrial […] (swelling measured through absorbace changes at 535 nm, monitored continuosly during 30 min Dose-response effects on mitochondrial swelling to EPI and NICO treatment were pursued.

The subject of assay [3] is human skeletal muscle myocytes (HSKM cells). The experiment in a line: Oxygen consumption rate in primary human skeletal muscle myocytes. The format is cell-based. The conditions noted are these: 48 hours, 300 nM FCCP.
Experimental: Measured endogenous rates of respiration reflect the net balance between rates of energy utilization, energy production, and mitochondrial uncoupling. This was followed by induction of resting (State 4o) respiration with the addition of 1 uM oligomycin to inhibit ATP synthase. State 4 respiration is primarily determined by the rate of proton leak across the inner mitochondrial membrane. Maximal respiration was then assessed by the addition of 300 nM FCCP, a chemical uncoupler of oxidative phosphorylation. In intact cells, this rate reflects the maximal rates of substrate oxidation and electron transport chain activity. An increase in maximal rates can reflect changes in the regulation or expression level of oxidative enzymes, electron transport chain components, or total mitochondrial mass. […] As a control, nonmitochondrial O2 consumption was measured after the addition of 100 nM rotenone and 100 nM myxothiazol to completely block the respiratory chain.
Respiration of the intact cells was measured in unbuffered DMEM containing 10 mM glucose, 10 mM pyruvate, and 2 mM glutamine. In panel A, endogenous respiration was measured on HSKM cells, followed by state 4 (resting) respiration with the addition of 1 uM oligomycin (indicated as ‘A’), and then maximal rates were measured after the addition of 300 nM FCCP, a chemical uncoupler (indicated as ‘B’). […]
Assay [4] has as its system electron transport chain proteins. The assay can be described thus: Western blot of mitochondrial electron transport chain proteins in C2C12 cells. The format is cell-based, mouse. Particulars: 1 μM, 48 hours.
Text: Western blots of cell lysates were used to assess levels of mitochondrial to determine if improved respiration is due to enhanced mitochondrial biogenesis.

Turning to `Oc1cc(O)c2c(c1)O[C@H](c1ccc(O)c(O)c1)[C@H](O)C2` [Epicatechin, (−)-epicatechin], the “reduction of infarct size vs. controls” value in assay [1] is reported as 27%.
As for `O=C(NCCO[N+](=O)[O-])c1cccnc1` [nicorandil, N-[2-(Nitroxy)ethyl]-3-pyridinecarboxamide], the “effect on calcium-induced mitochondrial damage (swelling)” value in assay [2] was “can limit”. Also, the “reduction of infarct size vs. controls” value in assay [1] came to 37%. For the same compound, the “stimulating mitochondrial function (maximal, uncoupler-stimulated respiration)” value in assay [3] is reported as “active”.
On to catechin, for which the “expression level of the 20 kDa subunit of complex I” value in assay [4] is listed as “clearly increased”. In assay [3], the “stimulating mitochondrial function (maximal, uncoupler-stimulated respiration)” value is “active”.

The values above are taken from patent US20120095063A1, “METHODS AND COMPOSITIONS FOR TREATMENT OF ISCHEMIC CONDITIONS AND CONDITIONS RELATED TO MITOCHONDRIAL FUNCTION” (priority 2009, published 2012).
